Reference: patent publication US5849863A, “Cytolytic bradykinin antagonists” (University of Colorado, priority 1995, dated 1998)
No end group written: not given here.

Tests used:
SCLC cell line SHP-77 = assay: Colorimetric MTT assay, growth of SCLC cell line SHP-77; type: cell-based, human
Method: (§1) The effectiveness of the antagonist compounds in inhibiting cancer cell growth in vitro was determined using a panel of human lung cancer cell lines: SCLC--SHP77, H345 and NSCLC--A549, H450; breast carcinoma McF7, normal human epithelial BEAS and normal human skin fibroblast FS 15 were used to study the specificity and cytotoxicity of the BK antagonist dimers. Cell lines were treated with various concentrations of dimers for 5 to 7 days and cell viability were measured with routine MTT assay. Cells treated with BK dimers were also be evaluated for apoptosis using our newly developed cytometric technique.
Cellular growth and survival was measured by a rapid colorimetric assay, based on the tetrazolium salt MTT, (3-(4,5-dimethylthiazol-2-yl)-2,5-diphenyl tetrazolium bromide), developed by Mosmann (J. of Immun. Methods, 65, 55-63, 1983) with minor modifications. Briefly, 1,000 normal lung fibroblasts or normal epithelial BEAS-2B cells, 1,000 or 5,000 viable NSCLC cell and 10,000 viable SCLC cell were plated in a 100 μl volume of growth medium in 96 well flat-bottomed microtiter plates. The cells were allowed to recover overnight. Bradykinin antagonists at various concentrations were added to the cells in triplicates and the plates were incubated at 37° C., 5% CO2 with 100% humidity. […] Absorbance at 490 nm was immediately determined using a scannning multiwell plate reader. […]

[1] = system: Calcium flux in response to CCK; assay: Calcium flux assay, response to CCK or gastrin; type: cell-based
Method: (§2) Briefly, mechanically dispersed single cell suspensions of plateau phase cells (7 days after splitting) were suspended in 20 mM HEPES/BSS buffer (20 mM Hepes/140 mM NaCl/5mM KCI/1 mM MgCl2 /5 mM Glucose) adjusted to pH 6,8 at 37° C. The acetoxymethyl ester form of Indo-1 (Indo-AM) at 5 μM was incubated with the cells for 30 min at 37° C. and then diluted with 1:1 with 20 mM HEPES/BSS buffer, pH 7.4 to raise the final pH to 7.1 followed by a second 30-min incubation at 37° C.
(§3) UV excitation (80 mW at 360 nm) was delivered by a model INNOVA 90/5 argon ion laser (Coherent, Palo Alto, Calif.). […] Thus, the ratio of the 410 nm fluorescence/490 nm fluorescence constitutes a measure of the changes in calcium ions liberated form intracellular stores (Endoplasmic reticulum) in response to various stimuli. Viable, loaded cells were distinguished by the machine form debris, dead cells, and unloaded cells by forward angle and 90° light scatter and 490 nm fluorescence. […] Data were collected by the MDADS computer including 410 nm and 490 nm fluorescence intensities and the ratio of 410/490 fluorescence intensity was secured as a function of time. […] The data were analyzed by a program developed by Philip Jewett.

SCLC cell lines [2] = assay: Growth of SCLC cell lines (MTT assay); type: cell-based, human; conditions: result in words
Method: as §1
Cellular growth and survival was measured by a rapid colorimetric assay, based on the tetrazolium salt MTT, (3-(4,5-dimethylthiazol-2-yl)-2,5-diphenyl tetrazolium bromide), developed by Mosmann (J. of Immun. Methods, 65, 55-63, 1983) with minor modifications. Briefly, 1,000 normal lung fibroblasts or normal epithelial BEAS-2B cells, 1,000 or 5,000 viable NSCLC cell and 10,000 viable SCLC cell were plated in a 100 μl volume of growth medium in 96 well flat-bottomed microtiter plates. The cells were allowed to recover overnight. Bradykinin antagonists at various concentrations were added to the cells in triplicates and the plates were incubated at 37° C., 5% CO2 with 100% humidity. […] Absorbance at 490 nm was immediately determined using a scannning multiwell plate reader.

Stability in plasma = type: in vitro ADME
SCLC cell lines [3] = assay: Apoptosis in SCLC / lung cancer cells; type: cell-based, human; conditions: inhibitory concentrations; data not shown
[4] = system: Calcium flux in response to BK; assay: Calcium flux assay, response to BK; type: cell-based; conditions: read-out: IC50 Ca2+ (BK)
Method: as §2, §3

[5] = system: intracellular Ca++ release, human lung cancer cell lines; conditions: Bunn et al. 1992; cited from earlier work
guinea pig ileum = conditions: agonist reference value; cited from earlier work
rat uterus = conditions: agonist reference value; cited from earlier work

stable in plasma (Stability in plasma) | half-life (Stability in plasma; stability in plasma, read-out: Plasma t1/2) [h] | IC50 [4] [nM] | Compound | effect on SCLC growth (SCLC cell line SHP-77; concentration up to 40 μM, SHP-77) | IC50 (SCLC cell line SHP-77; growth of SCLC cell line SHP-77) [nM] | % Inhibition CCK Ca2+ [1] [%] | growth inhibition, SCLC cell lines (SCLC cell lines [2]) | apoptotic response in SCLC cell lines (SCLC cell lines [3]) | stimulation of intracellular Ca++ release [5] | pD2 (negative logarithm of the dose of bradykinin that causes half-maximal contraction) (guinea pig ileum) | pD2 (negative logarithm of the dose of bradykinin that causes half-maximal contraction) (rat uterus)
stable in plasma | > 24 | 10 | NC(N)=NCCC[C@@H](N)C(=O)N[C@@H](CCCN=C(N)N)C(=O)N1CCC[C@H]1C(=O)N1C[C@H](O)C[C@H]1C(=O)NCC(=O)N[C@@H](Cc1cccs1)C(=O)N[C@@H](CO)C(=O)N1Cc2ccccc2C[C@@H]1C(=O)N1[C@H](C(=O)N[C@@H](CCCN=C(N)N)C(=O)O)C[C@@H]2CCCC[C@@H]21 [Compound B116] | little effect | > 40000 | 0 | no growth inhibition | no growth inhibition or apoptotic response |  |  | 
 |  |  | RPPGFSPFR [bradykinin, Arg^1 -Pro^2 -Pro^3 -Gly^4 -Phe^5 -Ser^6 -Pro^7 Phe^8 -Arg^9] |  |  |  |  |  | most potent peptide stimulant of intracellular Ca^++ release | 7.4 | 7.9
